Source: patent US12643871B2, “Aryl formamide compound containing chiral sulfur oxide or salt thereof, preparation method, herbicidal composition and use thereof” (Qingdao Kingagroot Chemical Compound Co., Ltd., priority 2019, dated 2026)

Legend:
Format in all cases: in vivo
Alopecurus japonicas = experiment: Comparison experiment (post-emergence) against racemate / S configuration; details: Table 6, post-seedling test conditions
Method in brief: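 Compounds are applied post-emergence by spray tower to plants at the 2 leaf stage, at rates from 15 to 500 g/ha with a methyl oleate synergist. Control is expressed on fresh weight, counted after 15 days in the greenhouse and averaged across three repetitions.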

Digitaria sanguinalis [1] = experiment: as above; details: Table 6, post-seedling test conditions
Abutilon theophrasti = experiment: as above; details: Abutilon theophrasti (3.5 leaf), 16DAA
Green Setaria viridis = experiment: as above; details: for Results of comparison experiment (16DAA), weed control: Setaria viridis (4 leaf)
Leptochloa chinensis = experiment: as above; details: Leptochloa chinensis (4.5 leaf), 16DAA
Corn-Zhengdan 958 = experiment: Comparison experiment (post-emergence, Table 7), crop safety on corn; details: Corn-Zhengdan 958 (3.5 leaf)
From the text: (§1) If there is no clear marker, the post-seedling test conditions are the same as above, and the experimental results are shown in Tables 4-7.

Amaranthus retroflexus = experiment: Comparison experiment (post-emergence, Table 7); details: Amaranthus retroflexus (6 leaf)
From the text: as §1

Capsella bursa-pastoris = experiment: Comparison experiment (post-emergence, Table 7); details: Capsella bursa-pastoris (10-11 leaf)
From the text: as §1

Descurainia sophia = experiment: Comparison experiment (post-emergence, Table 7); details: Descurainia sophia (12 leaf)
From the text: as §1

Echinochloa crusgali = experiment: Comparison experiment (post-emergence, Table 7); details: Echinochloa crusgali (3 leaf)
From the text: as §1

Galium aparine = experiment: Comparison experiment (post-emergence, Table 7); details: Galium aparine (5 branches)
From the text: as §1

Malachium aquaticum = experiment: Comparison experiment (post-emergence, Table 7); details: Malachium aquaticum (2 branches)
From the text: as §1

Sinapis arvensis = experiment: Comparison experiment (post-emergence, Table 7); details: Sinapis arvensis (3.5 leaf)
From the text: as §1

Veronica didyma = experiment: Comparison experiment (post-emergence, Table 7); details: Veronica didyma (2 branches)
From the text: as §1

Digitaria sanguinalis [2] = experiment: Comparison experiment (post-emergence) against racemate / S configuration; details: Digitaria sanguinalis (3.5 leaf), 16DAA

`CC[S+]([O-])c1c(C(F)(F)F)ccc(C(=O)Nc2nnc(C)o2)c1SC` (centres unmarked) [Control Compound A′, reference compound] was tested. Which “Results of comparison experiment, Alopecurus japonicas (120 g/ha)” value (Alopecurus japonicas) did it give?
Its value is 20%.

And the “Results of comparison experiment, Digitaria sanguinalis (30 g/ha)” value (Digitaria sanguinalis [1])?
Its value is 50%.

And the “Results of comparison experiment (16DAA), weed control” value (shortened to “Results … weed control”) (Abutilon theophrasti; 3 g/ha)?
Its value is 10%.

What about the “Results … weed control” value (Abutilon theophrasti; 6 g/ha) of the same compound?
The value was 20%.

What about the “Results … weed control” value (Abutilon theophrasti; 12 g/ha) of the same compound?
Its value is 30%.

And the “Results … weed control” value (Abutilon theophrasti; 24 g/ha)?
The value was 40%.

And the “Results … weed control” value (Abutilon theophrasti; 48 g/ha)?
Its value is 50%.

And the “Results of comparison experiment, Green Setaria viridis (30 g/ha)” value (Green Setaria viridis; 30 g/ha, Table 6, post-seedling test conditions)?
The value was 90%.

What about the “Results … weed control” value (Green Setaria viridis; 3 g/ha) of the same compound?
The value was 0%.

And the “Results … weed control” value (Green Setaria viridis; 6 g/ha)?
Its value is 0%.

And the “Results … weed control” value (Green Setaria viridis; 12 g/ha)?
The value was 10%.

And the “Results … weed control” value (Green Setaria viridis; 24 g/ha)?
Its value is 40%.

What about the “Results … weed control” value (Green Setaria viridis; 48 g/ha) of the same compound?
The value was 50%.

What about the “Results … weed control” value (Leptochloa chinensis; 3 g/ha) of the same compound?
Its value is 0%.

What about the “Results … weed control” value (Leptochloa chinensis; 6 g/ha) of the same compound?
The value was 0%.

And the “Results … weed control” value (Leptochloa chinensis; 12 g/ha)?
Its value is 0%.

What about the “Results … weed control” value (Leptochloa chinensis; 24 g/ha) of the same compound?
The value was 10%.

And the “Results … weed control” value (Leptochloa chinensis; 48 g/ha)?
The value was 20%.

What about the “Results of comparison experiment (16DAA), crop damage” value (shortened to “Results … crop damage”) (Corn-Zhengdan 958; 3 g/ha) of the same compound?
Its value is 0%.

And the “Results … crop damage” value (Corn-Zhengdan 958; 6 g/ha)?
Its value is 0%.

And the “Results … crop damage” value (Corn-Zhengdan 958; 12 g/ha)?
The value was 0%.

And the “Results … crop damage” value (Corn-Zhengdan 958; 24 g/ha)?
The value was 0%.

What about the “Results … crop damage” value (Corn-Zhengdan 958; 48 g/ha) of the same compound?
The value was 0%.

What about the “Results … weed control” value (Amaranthus retroflexus; 3 g/ha) of the same compound?
The value was 10%.

And the “Results … weed control” value (Amaranthus retroflexus; 6 g/ha)?
Its value is 10%.

And the “Results … weed control” value (Amaranthus retroflexus; 12 g/ha)?
The value was 40%.

And the “Results … weed control” value (Amaranthus retroflexus; 24 g/ha)?
Its value is 50%.

And the “Results … weed control” value (Amaranthus retroflexus; 48 g/ha)?
The value was 50%.

And the “Results … weed control” value (Capsella bursa-pastoris; 3 g/ha)?
Its value is 0%.

And the “Results … weed control” value (Capsella bursa-pastoris; 6 g/ha)?
Its value is 10%.

What about the “Results … weed control” value (Capsella bursa-pastoris; 12 g/ha) of the same compound?
The value was 10%.

What about the “Results … weed control” value (Capsella bursa-pastoris; 24 g/ha) of the same compound?
Its value is 20%.

What about the “Results … weed control” value (Capsella bursa-pastoris; 48 g/ha) of the same compound?
Its value is 30%.

And the “Results … weed control” value (Descurainia sophia; 3 g/ha)?
Its value is 0%.

What about the “Results … weed control” value (Descurainia sophia; 6 g/ha) of the same compound?
Its value is 10%.

What about the “Results … weed control” value (Descurainia sophia; 12 g/ha) of the same compound?
Its value is 20%.

What about the “Results … weed control” value (Descurainia sophia; 24 g/ha) of the same compound?
The value was 30%.

And the “Results … weed control” value (Descurainia sophia; 48 g/ha)?
Its value is 40%.

What about the “Results … weed control” value (Echinochloa crusgali; 3 g/ha) of the same compound?
Its value is 10%.

And the “Results … weed control” value (Echinochloa crusgali; 6 g/ha)?
Its value is 20%.

What about the “Results … weed control” value (Echinochloa crusgali; 12 g/ha) of the same compound?
Its value is 30%.

What about the “Results … weed control” value (Echinochloa crusgali; 24 g/ha) of the same compound?
The value was 40%.

And the “Results … weed control” value (Echinochloa crusgali; 48 g/ha)?
The value was 50%.

What about the “Results … weed control” value (Galium aparine; 3 g/ha) of the same compound?
The value was 0%.

And the “Results … weed control” value (Galium aparine; 6 g/ha)?
Its value is 0%.

What about the “Results … weed control” value (Galium aparine; 12 g/ha) of the same compound?
Its value is 0%.

And the “Results … weed control” value (Galium aparine; 24 g/ha)?
The value was 0%.

What about the “Results … weed control” value (Galium aparine; 48 g/ha) of the same compound?
The value was 10%.

And the “Results … weed control” value (Malachium aquaticum; 3 g/ha)?
Its value is 10%.

And the “Results … weed control” value (Malachium aquaticum; 6 g/ha)?
Its value is 10%.

And the “Results … weed control” value (Malachium aquaticum; 12 g/ha)?
The value was 20%.

And the “Results … weed control” value (Malachium aquaticum; 24 g/ha)?
Its value is 30%.

And the “Results … weed control” value (Malachium aquaticum; 48 g/ha)?
Its value is 50%.

And the “Results … weed control” value (Sinapis arvensis; 3 g/ha)?
Its value is 0%.

And the “Results … weed control” value (Sinapis arvensis; 6 g/ha)?
Its value is 0%.

What about the “Results … weed control” value (Sinapis arvensis; 12 g/ha) of the same compound?
The value was 20%.

And the “Results … weed control” value (Sinapis arvensis; 24 g/ha)?
The value was 40%.

What about the “Results … weed control” value (Sinapis arvensis; 48 g/ha) of the same compound?
The value was 50%.

What about the “Results … weed control” value (Veronica didyma; 3 g/ha) of the same compound?
The value was 10%.

What about the “Results … weed control” value (Veronica didyma; 6 g/ha) of the same compound?
The value was 10%.

What about the “Results … weed control” value (Veronica didyma; 12 g/ha) of the same compound?
The value was 20%.

And the “Results … weed control” value (Veronica didyma; 24 g/ha)?
The value was 20%.

And the “Results … weed control” value (Veronica didyma; 48 g/ha)?
The value was 20%.

And the “Results … weed control” value (Digitaria sanguinalis [2]; 3 g/ha)?
The value was 10%.

What about the “Results … weed control” value (Digitaria sanguinalis [2]; 6 g/ha) of the same compound?
The value was 10%.

And the “Results … weed control” value (Digitaria sanguinalis [2]; 12 g/ha)?
Its value is 20%.

And the “Results … weed control” value (Digitaria sanguinalis [2]; 24 g/ha)?
The value was 30%.

And the “Results … weed control” value (Digitaria sanguinalis [2]; 48 g/ha)?
The value was 30%.
